In ChEMBL document CHEMBL1201862, “PubChem BioAssay data set” (2004):
The source made the active and inactive calls.

What was measured:
[1] = HEK293T cytotoxicity, dose response, cytotoxicity control for miR-122 modulator project, cell-based, activator set, cherry-pick (AID 720690); format: functional;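 note: HEK293T human cells scored for general mammalian cytotoxicity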
[2] = miR-122 activators in hepatoma reporter cells, dose response, cell-based, Huh7 psiCHECK-miR122, Renilla luciferase, cherry-picked (AID 651956); format: functional;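 note: huh7 hepatoma cells stably carrying a psiCHECK-2 miR-122 sensor plasmid; renilla luciferase signal reporting endogenous miR-122 activity after 48 h compound exposure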
[3] = Luminescence-based dose response cell-based high throughput screening assay for cytotoxic compounds using the IEC-6 intestinal epithelial cell line. [Related pubchem assays: 1858 (Summary AID.), 1825 (Counterscreen.), 1907 (Confirmation screen.)]; format: functional
[4] = Luminescence Cell-Based Dose Retest to Confirm Inhibitors of Cancer Stem Cells. [Related pubchem assays (depositor defined):AID2717, AID2721]; format: functional; conditions: Homo sapiens
[5] = HEK293T cytotoxicity, dose response, cytotoxicity control for miR-122 modulator project, cell-based, inhibitor set, cherry-pick, set 2 (AID 720697); format: functional
[6] = system: INS1; assay: beta cell apoptosis inhibitors, cytokine rescue, dose response, luminescence, retest (AID 449756); format: functional, cell-based; conditions: Rattus norvegicus;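 note: cell death triggered by IL-1 beta plus TNF-alpha plus IFN-gamma mixture; protective hits raise ATP signal compared with cytokine alone wells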
[7] = molecular target: Hepatocyte nuclear factor 4-alpha (Homo sapiens, UniProt P41235); format: functional, cell-based;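 note: biochemical luminescence-based dose-response counterscreen measuring inhibition of HNF4 dimerization, run alongside a screen for blockers of ABHD5–perilipin-5 interaction; split luciferase complementation of HNF4 fusion proteins in cell lysate measuring dimerization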
[8] = molecular target: Paired box protein Pax-8 (Homo sapiens, UniProt Q06710); assay: inhibitors of PAX8-driven TPO luciferase reporter, dose response, RMG-I cells, cherry-pick (AID 687027); format: functional, cell-based;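 note: luciferase reporter driven by Pax8 target thyroperoxidase promoter measured by SteadyGlo luminescence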
[9] = molecular target: Matrix metalloproteinase-14 (Homo sapiens, UniProt P50281); assay: Dose Response confirmation of uHTS hits for a small molecule inhibitors of MT1-MMP activation in a fluorescence assay set 1.; format: functional
[10] = molecular target: T1, ATP-dependent translocase ABCB1 (Homo sapiens, UniProt P08183); assay: ABCG2 efflux pump inhibitor potency, dose response, Ig-MXP3 cells, JC-1, flow cytometry, set 2 (AID 504566); format: functional; conditions: read-out: EC50_MICROM_;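 note: flow cytometry median green fluorescence of retained JC-1 dye; potency of efflux pump inhibition measured as rising substrate retention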
[11] = molecular target: T1, ATP-dependent translocase ABCB1; assay: ABCB1 efflux inhibitor potency, dose response, Jurkat-DNR cells, JC-1, flow cytometry, set 2 (AID 504569); format: functional; conditions: read-out: EC50_MICROM_;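 note: potency of pump inhibitors that raise cellular JC-1 green fluorescence up to the nicardipine level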
[12] = cells; format: functional, cell-based; conditions: HEK-CNG
[13] = molecular target: Galanin receptor type 3 (Homo sapiens, UniProt O60755); assay: Fluorescence-based cell-based primary high throughput dose response assay to identify antagonists of the Galanin Receptor 3 (GalR3).; format: functional
[14] = cytotoxicity in HEK-293T cells, dose response, cytotoxicity control for TCR NF-kB inhibitor project, luminescence, T-cell screen hits (AID 489026); format: functional, cell-based;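 note: cells exposed to compound about 14 hours before the viability readout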
[15] = T. cruzi intracellular amastigote growth inhibition, dose response, imaging, CA-I/72 strain, bovine embryo skeletal muscle, dry powder (AID 651885); format: functional, cell-based
[16] = molecular target: T2, Trace amine-associated receptor 1 (Homo sapiens, UniProt Q96RJ0); assay: Counterscreen for antagonists of the human trace amine associated receptor 1 (hTAAR1): Fluorescence-based cell-based high throughput dose response assay to identify TAAR1 Agonists.; format: functional
T2 sequence (Q96RJ0 whole entry): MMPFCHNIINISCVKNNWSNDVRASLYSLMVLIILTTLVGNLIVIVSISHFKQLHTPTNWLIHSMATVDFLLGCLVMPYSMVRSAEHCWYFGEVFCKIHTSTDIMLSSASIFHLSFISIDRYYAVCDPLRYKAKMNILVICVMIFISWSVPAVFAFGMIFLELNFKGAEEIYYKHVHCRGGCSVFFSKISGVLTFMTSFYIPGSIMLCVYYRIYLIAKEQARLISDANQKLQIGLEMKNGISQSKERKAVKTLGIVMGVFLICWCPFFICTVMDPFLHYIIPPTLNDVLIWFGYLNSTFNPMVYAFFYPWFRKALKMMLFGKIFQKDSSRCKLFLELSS

[17] = Counterscreen for antagonists of the human trace amine associated receptor 1 (hTAAR1): Fluorescence-based cell-based high throughput dose response assay to identify nonselective Ga16 antagonists.; format: functional
[18] = molecular target: T2, Trace amine-associated receptor 1; assay: Fluorescence-based cell-based high throughput dose response assay to identify antagonists of the human trace amine associated receptor 1 (TAAR1).; format: functional
[19] = Counterscreen for […] of the human trace amine associated receptor 1 (TAAR1): Fluorescence-based cell-based high throughput dose response assay to identify nonselective Ga16 agonists.; format: functional

T1 sequence (P08183 whole entry): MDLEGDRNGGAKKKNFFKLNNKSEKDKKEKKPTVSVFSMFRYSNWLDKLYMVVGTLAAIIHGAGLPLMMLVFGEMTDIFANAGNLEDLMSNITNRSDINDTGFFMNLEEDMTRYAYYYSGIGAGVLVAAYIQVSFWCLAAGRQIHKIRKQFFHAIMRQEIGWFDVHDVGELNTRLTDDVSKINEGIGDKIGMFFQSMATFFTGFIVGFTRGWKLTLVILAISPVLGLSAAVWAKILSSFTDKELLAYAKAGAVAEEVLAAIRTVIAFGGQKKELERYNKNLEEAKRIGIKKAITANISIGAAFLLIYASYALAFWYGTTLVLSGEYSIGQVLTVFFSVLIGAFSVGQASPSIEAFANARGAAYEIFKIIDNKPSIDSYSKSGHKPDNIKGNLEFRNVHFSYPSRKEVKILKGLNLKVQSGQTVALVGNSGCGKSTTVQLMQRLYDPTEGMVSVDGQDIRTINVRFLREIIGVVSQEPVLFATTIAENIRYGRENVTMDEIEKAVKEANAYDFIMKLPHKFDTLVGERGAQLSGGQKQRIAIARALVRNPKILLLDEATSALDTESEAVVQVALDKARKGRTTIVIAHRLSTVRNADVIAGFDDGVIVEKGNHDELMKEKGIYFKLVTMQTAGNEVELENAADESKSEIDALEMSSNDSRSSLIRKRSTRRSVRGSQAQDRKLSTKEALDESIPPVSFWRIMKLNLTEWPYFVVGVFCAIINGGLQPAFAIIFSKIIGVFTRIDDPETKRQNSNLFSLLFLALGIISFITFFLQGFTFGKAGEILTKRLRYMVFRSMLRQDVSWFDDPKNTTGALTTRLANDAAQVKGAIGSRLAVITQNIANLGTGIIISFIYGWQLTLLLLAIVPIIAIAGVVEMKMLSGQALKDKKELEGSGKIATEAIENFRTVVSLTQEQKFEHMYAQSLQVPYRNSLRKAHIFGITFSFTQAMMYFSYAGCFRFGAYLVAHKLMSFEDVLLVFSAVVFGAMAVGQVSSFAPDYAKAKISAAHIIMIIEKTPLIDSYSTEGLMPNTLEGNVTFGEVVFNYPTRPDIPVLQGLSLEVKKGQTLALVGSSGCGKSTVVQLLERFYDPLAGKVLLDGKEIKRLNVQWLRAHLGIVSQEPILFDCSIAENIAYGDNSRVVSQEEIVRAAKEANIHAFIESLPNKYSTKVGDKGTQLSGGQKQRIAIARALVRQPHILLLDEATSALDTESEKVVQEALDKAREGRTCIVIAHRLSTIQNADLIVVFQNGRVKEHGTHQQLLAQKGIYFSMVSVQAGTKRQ
Chain of Hepatocyte nuclear factor 4-alpha (P41235 whole entry, the tested form may be a part): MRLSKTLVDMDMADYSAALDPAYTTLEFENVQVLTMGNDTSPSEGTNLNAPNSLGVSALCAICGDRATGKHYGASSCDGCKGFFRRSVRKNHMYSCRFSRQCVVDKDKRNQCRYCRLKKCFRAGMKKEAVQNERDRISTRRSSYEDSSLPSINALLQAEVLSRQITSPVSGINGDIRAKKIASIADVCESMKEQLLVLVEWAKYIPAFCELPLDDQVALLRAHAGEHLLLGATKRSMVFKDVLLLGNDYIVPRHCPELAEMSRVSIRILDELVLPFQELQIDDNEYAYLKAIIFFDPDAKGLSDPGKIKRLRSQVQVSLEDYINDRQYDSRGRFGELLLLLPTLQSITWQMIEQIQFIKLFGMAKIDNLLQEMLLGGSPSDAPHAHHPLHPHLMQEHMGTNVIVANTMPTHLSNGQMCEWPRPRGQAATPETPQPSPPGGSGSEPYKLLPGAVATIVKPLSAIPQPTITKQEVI
Chain of Paired box protein Pax-8 (Q06710 whole entry): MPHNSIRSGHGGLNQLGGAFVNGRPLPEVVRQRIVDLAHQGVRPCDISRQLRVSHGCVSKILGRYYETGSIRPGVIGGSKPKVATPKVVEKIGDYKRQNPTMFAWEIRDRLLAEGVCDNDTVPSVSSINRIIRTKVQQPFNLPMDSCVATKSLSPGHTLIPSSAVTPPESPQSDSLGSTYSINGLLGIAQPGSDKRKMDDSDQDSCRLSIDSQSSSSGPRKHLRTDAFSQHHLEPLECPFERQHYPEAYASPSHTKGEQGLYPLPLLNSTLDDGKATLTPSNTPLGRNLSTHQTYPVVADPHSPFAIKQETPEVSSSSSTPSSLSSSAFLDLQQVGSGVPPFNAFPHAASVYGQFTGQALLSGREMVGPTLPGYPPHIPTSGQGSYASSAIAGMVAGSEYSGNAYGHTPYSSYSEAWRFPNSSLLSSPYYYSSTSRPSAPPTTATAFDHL
Chain of Galanin receptor type 3 (O60755 whole entry): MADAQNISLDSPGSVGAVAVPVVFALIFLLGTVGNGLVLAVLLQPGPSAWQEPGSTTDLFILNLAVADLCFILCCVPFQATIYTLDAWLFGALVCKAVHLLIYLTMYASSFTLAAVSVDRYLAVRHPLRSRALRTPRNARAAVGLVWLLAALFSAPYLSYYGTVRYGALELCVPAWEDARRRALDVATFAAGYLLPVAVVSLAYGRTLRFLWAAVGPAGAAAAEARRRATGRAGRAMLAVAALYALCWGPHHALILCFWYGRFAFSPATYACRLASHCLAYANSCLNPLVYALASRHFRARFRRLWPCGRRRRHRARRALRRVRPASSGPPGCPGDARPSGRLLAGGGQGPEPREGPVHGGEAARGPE

## C[C@H](NC(=O)C[C@H]1CC[C@@H]2[C@@H](COc3ccc(NS(=O)(=O)c4ccc(Cl)cc4)cc3C(=O)N2C)O1)c1ccccc1
[1]
  AC50: 29.5 µM (active)
[2]
  AC50: 18.2 µM (active)

## Cc1ccc(-c2nc(C(Cl)Cl)c3ccccc3n2)cc1
[2]
  AC50: 20 µM (active)
[3]
  IC50: 373 nM (active)
[4]
  AC50: 1.1 µM (active)
[5]
  AC50: 10.1 µM (active)
[6]
  AC50: 4.53 µM (active)

## C#CCN(C[C@@H]1[C@@H](OC(=O)NCc2ccc(OC)c(OC)c2)[C@@H](OC(=O)NCc2ccc(OC)c(OC)c2)Cn2c(=O)ccc(=O)n21)S(=O)(=O)c1ccc(C)cc1
[7]
  IC50: 32.1 µM (inactive)
[8]
  AC50: 3.91 µM (active)

## CCOc1ccc2nc(NN=C3C(=O)NC(=S)NC3=O)sc2c1
[9]
  IC50: 13.9 µM (active)

## O=C(c1cccc(Cl)c1)N1CCN(c2cc(-c3ccccc3)nc3cc(-c4cccc(Cl)c4)nn23)CC1
[10]
  EC50: 2.66 µM (active)
[11]
  EC50: 3.16 µM (active)

## CCn1cc(C(=O)NC2CCCc3c2cnn3-c2cccc(C)c2C)cn1 (stereo not given)
[12]
  EC50: > 29.9 µM (inactive)
[13]
  IC50: 874 nM (active)
[14]
  IC50: > 80 µM (inactive)

## CC(C)N1C[C@H](C)[C@@H](CN(C)C(=O)OC(C)(C)C)Oc2c(NC(=O)c3ccncc3)cccc2C1=O
[15]
  IC50: > 20 µM (inactive)

## Cc1ccc(S(=O)(=O)N2[C@@H](c3ccc(Br)cc3)C(C(=O)O)=CC[C@H]2c2ccc(Cl)cc2)cc1
[16]
  EC50: 13.1 µM (inactive)
[17]
  IC50: 17.5 µM (inactive)
[18]
  IC50: 1.62 µM (active)
[19]
  EC50: > 29.9 µM (inactive)
